Laboratory results: article PMC7031696 (Cell chemical biology, 2019)
Like-named read-outs stand apart in the source and are kept apart here.

Experiments:
[1] = test system: 3D7-MR4 trophozoite parasite-infected RBCs; assay: Metabolomic profiling (hydrophilic metabolite changes, UHPLC-MS); assay type: cell-based, Plasmodium falciparum
[2] = 1.5 h, 500 μM, pH 7.4
[3] = test system: Plasmodium falciparum 3D7-A10 parasites; assay: Stage specificity assay (8-h exposure of synchronized stages, IC50^8h); assay type: cell-based; details: for IC50: Plasmodium falciparum
[4] = test system: asynchronous 3D7-A10 parasite cultures; assay: Standard 72-h exposure asexual blood stage susceptibility assay (IC50^72h); assay type: cell-based, Plasmodium falciparum; details: Plasmodium falciparum, 3D7, 72 h, read-out: Overall (72hr assay) Mean IC50 (IC50^72h)
[5] = test system: 3D7-MR4 trophozoite parasite-infected RBCs; details: 10 × IC50^72h; ref Allman et al., 2016; cited from earlier work

Compound: CCCN(CCC)CC(O)COc1ccccc1C(=O)Nc1ccccc1 (centres unmarked) [MMV006455]
- Log2(fold changes) 3-phosphoglycerate ([1]; metabolite 3-phosphoglycerate, log2 fold change): 0.4787
- Log2(fold changes) 4-Pyridoxic acid ([1]; metabolite 4-Pyridoxic acid, log2 fold change): -0.2918
- Log2(fold changes) 4-aminobutyrate ([1]; metabolite 4-aminobutyrate, log2 fold change): 0.4559
- Log2(fold changes) 4-phosphopantetheine ([1]; metabolite 4-phosphopantetheine, log2 fold change): 0.0000
- Log2(fold changes) 4-phosphopantothenate ([1]; metabolite 4-phosphopantothenate, log2 fold change): 0.3730
- Log2(fold changes) 5-aminopentanoic acid ([1]; metabolite 5-aminopentanoic acid, log2 fold change): 0.0000
- Log2(fold changes) 5-methyl-THF ([1]; metabolite 5-methyl-THF, log2 fold change): 0.0000
- Log2(fold changes) 5-phosphoribosyl-1-pyrophosphate ([1]; metabolite 5-phosphoribosyl-1-pyrophosphate, log2 fold change): -0.9177
- Log2(fold changes) 6-phospho-D-gluconate ([1]; metabolite 6-phospho-D-gluconate, log2 fold change): 0.4580
- Log2(fold change) HVDD ([1]; metabolite HVDD): 0.0000
- Log2(fold change) Hydroxyisocaproic acid ([1]; metabolite Hydroxyisocaproic acid): 0.0000
- Log2(fold change) IDP ([1]; metabolite IDP): 0.0000
- Log2(fold change) IMP ([1]; metabolite IMP): 0.8206
- Log2(fold change) Inositol ([1]; metabolite Inositol): 0.0000
- Log2(fold change) Isopentyl-PP ([1]; metabolite Isopentyl-PP): 0.0000
- Log2(fold change) L-arginino-succinate ([1]; metabolite L-arginino-succinate): 0.0000
- Log2(fold change) LD ([1]; metabolite LD): -0.4790
- Log2(fold change) Myristoyl/tetradecanoyl-CoA ([1]; metabolite Myristoyl/tetradecanoyl-CoA): 0.0000
- Log2(fold change) N-Acetyl-L-alanine ([1]; metabolite N-Acetyl-L-alanine): -0.7708
- Log2(fold change) N-acetyl-L-ornithine ([1]; metabolite N-acetyl-L-ornithine): -1.4120
- Log2(fold change) N-acetyl-glucosamine-1/6-phosphate ([1]; metabolite N-acetyl-glucosamine-1/6-phosphate): 1.1792
- Log2(fold change) N-acetyl-glutamate ([1]; metabolite N-acetyl-glutamate): 0.9055
- Log2(fold change) N-acetyl-glutamine ([1]; metabolite N-acetyl-glutamine): -0.4062
- Log2(fold change) N-carbamoyl-L-aspartate ([1]; metabolite N-carbamoyl-L-aspartate): -1.3580
- Log2(fold change) NAD+ ([1]; metabolite NAD+): 0.6496
- Log2(fold change) NADH ([1]; metabolite NADH): -0.2919
- Log2(fold change) NADP+ ([1]; metabolite NADP+): 1.1032
- Log2(fold change) NADPH ([1]; metabolite NADPH): 1.2448
- Log2(fold change) O-acetyl-L-serine ([1]; metabolite O-acetyl-L-serine): 0.0000
- Log2(fold change) Octoluse 8/1P ([1]; metabolite Octoluse 8/1P): -0.0556
- Log2(fold change) Octoluse Bisphosphate ([1]; metabolite Octoluse Bisphosphate): 0.1196
- Log2(fold change) PD ([1]; metabolite PD): -1.7411
- Log2(fold change) PE ([1]; metabolite PE): 2.1593
- Log2(fold change) PEE ([1]; metabolite PEE): -6.2592
- Log2(fold change) PEEK ([1]; metabolite PEEK): -3.5426
- Log2(fold change) PVNF ([1]; metabolite PVNF): -1.5028
- Log2(fold change) Pyroglutamic acid ([1]; metabolite Pyroglutamic acid): -0.5503
- Log2(fold change) Pyrophosphate ([1]; metabolite Pyrophosphate): -0.6263
- Log2(fold change) Ribose-5-phosphate ([1]; metabolite Ribose-5-phosphate): 0.0000
- Log2(fold change) S-adenosyl-L-homocysteine ([1]; metabolite S-adenosyl-L-homocysteine): 0.2802
- Log2(fold change) S-adenosyl-L-methioninamine ([1]; metabolite S-adenosyl-L-methioninamine): 0.0000
- Log2(fold change) S-adenosyl-L-methionine ([1]; metabolite S-adenosyl-L-methionine): 0.0000
- Log2(fold change) S-methyl-5'-thioadenosine ([1]; metabolite S-methyl-5'-thioadenosine): 1.5238
- Log2(fold change) SD ([1]; metabolite SD): -2.2607
- Log2(fold change) SDL ([1]; metabolite SDL): 0.0000
- Log2(fold change) SID ([1]; metabolite SID): 0.0000
- Log2(fold change) Sedoheptulose bisphosphate ([1]; metabolite Sedoheptulose bisphosphate): 0.2316
- Log2(fold change) Thiamine pyrophosphate ([1]; metabolite Thiamine pyrophosphate): 0.0000
- Log2(fold changes) UDP-D-glucose ([1]; metabolite UDP-D-glucose, log2 fold change): 0.1600
- Log2(fold changes) UDP-D-glucuronate ([1]; metabolite UDP-D-glucuronate, log2 fold change): -0.0808
- Log2(fold changes) UDP-N-acetyl-glucosamine ([1]; metabolite UDP-N-acetyl-glucosamine, log2 fold change): 0.3510
- Log2(fold changes) UDP ([1]; metabolite UDP, log2 fold change): 0.8505
- Log2(fold changes) UMP ([1]; metabolite UMP, log2 fold change): -0.5223
- Log2(fold changes) UTP ([1]; metabolite UTP, log2 fold change): -1.8892
- Log2(fold change) hydroxyphenylpyruvate ([1]; metabolite hydroxyphenylpyruvate): 0.0000
- Log2(fold change) hydroxyproline/Aminolevulinate ([1]; metabolite hydroxyproline/Aminolevulinate): 0.0000
- Log2(fold change) hypoxanthine ([1]; metabolite hypoxanthine): 0.1926
- Log2(fold change) indole ([1]; metabolite indole): -0.2645
- Log2(fold change) inosine ([1]; metabolite inosine): 0.3717
- Log2(fold change) isoleucine ([1]; metabolite isoleucine): 0.0000
- Log2(fold change) lactate ([1]; metabolite lactate): 1.3382
- Log2(fold change) leucine ([1]; metabolite leucine): 0.0000
- Log2(fold change) lysine ([1]; metabolite lysine): 0.0000
- Log2(fold change) malate ([1]; metabolite malate): 1.2603
- Log2(fold change) maleic acid ([1]; metabolite maleic acid): 0.0000
- Log2(fold change) methionine ([1]; metabolite methionine): 0.0000
- Log2(fold change) myo-inositol ([1]; metabolite myo-inositol): 3.3468
- Log2(fold change) nicotinamide mononucleotide ([1]; metabolite nicotinamide mononucleotide): 0.0000
- Log2(fold change) nicotinate ([1]; metabolite nicotinate): 0.0981
- Log2(fold change) ornithine ([1]; metabolite ornithine): -0.2237
- Log2(fold change) orotate ([1]; metabolite orotate): -1.3257
- Log2(fold change) orotidine-5'-phosphate ([1]; metabolite orotidine-5'-phosphate): 0.0000
- Log2(fold change) oxaloacetate ([1]; metabolite oxaloacetate): 0.0000
- Log2(fold change) p-aminobenzoate ([1]; metabolite p-aminobenzoate): 0.0000
- Log2(fold change) p-hydroxybenzoate ([1]; metabolite p-hydroxybenzoate): 0.4381
- Log2(fold change) pantothenate ([1]; metabolite pantothenate): 0.0000
- Log2(fold change) phenylalanine ([1]; metabolite phenylalanine): 0.0000
- Log2(fold change) phenylpyruvate ([1]; metabolite phenylpyruvate): 0.1142
- Log2(fold change) phosphoenolpyruvate ([1]; metabolite phosphoenolpyruvate): 0.0121
- Log2(fold change) prephenate ([1]; metabolite prephenate): 0.0000
- Log2(fold change) proline ([1]; metabolite proline): 0.0000
- Log2(fold change) pyridoxine ([1]; metabolite pyridoxine): 0.0000
- Log2(fold change) pyruvate ([1]; metabolite pyruvate): 0.4670
- Log2(fold change) riboflavin ([1]; metabolite riboflavin): 0.0000
- Log2(fold change) ribose ([1]; metabolite ribose): 0.0000
- Log2(fold change) ribose-phosphate ([1]; metabolite ribose-phosphate): -0.0481
- Log2(fold change) ribulose-5-phosphate ([1]; metabolite ribulose-5-phosphate): 0.0000
- Log2(fold change) serine ([1]; metabolite serine): 0.0000
- Log2(fold change) sn-glycerol-3-phosphate ([1]; metabolite sn-glycerol-3-phosphate): -0.3619
- Log2(fold change) succinate/Methylmalonic acid ([1]; metabolite succinate/Methylmalonic acid): -0.7549
- Log2(fold change) succinyl-CoA/methylmalonyl-CoA ([1]; metabolite succinyl-CoA/methylmalonyl-CoA): 0.0000
- Log2(fold change) taurine ([1]; metabolite taurine): 0.0000
- Log2(fold change) thiamine ([1]; metabolite thiamine): 0.0000
- Log2(fold change) threonine/homoserine ([1]; metabolite threonine/homoserine): 0.0000
- Log2(fold change) thymidine ([1]; metabolite thymidine): -0.5446
- Log2(fold changes) thymine ([1]; metabolite thymine, log2 fold change): 3.4235
- Log2(fold changes) trehalose-6-Phosphate ([1]; metabolite trehalose-6-Phosphate, log2 fold change): 0.0000
- Log2(fold changes) tryptophan ([1]; metabolite tryptophan, log2 fold change): 0.0000
- Log2(fold changes) tyrosine ([1]; metabolite tyrosine, log2 fold change): 0.0000
- Log2(fold changes) uridine ([1]; metabolite uridine, log2 fold change): 0.2304
- Ratio fil./std. (absorbance filtrate/standard) [2]: 1.00
- solubility at 1.5 h (physchem; pH 7.4): > 100 µM
- solubility at 1.5 h (physchem; pH 7.4, aqueous buffer, kinetic from dmso stock): ≥ 500 µM
- Ratio lowest IC50 8hr/IC50 72hr ([3]; 3D7-A10): 1.0
- killing in stage specificity assay ([3]; 8-h exposures, survival curves): incomplete killing at all asexual blood stages
- IC50 ([3]; 3D7, read-out: Early rings IC50 (IC50^8h), 8-h exposure 0–8 hr, bound given in μM): > 12.5 µM
- IC50 ([3]; 3D7, read-out: Early trophozoites Mean IC50 (IC50^8h), 8-h exposure 16–24 hr, 3D7-A10, survival at 60 h): 0.441 µM
- IC50 ([3]; 3D7, read-out: Late rings IC50 (IC50^8h), 8-h exposure 8–16 hr, bound given in μM): > 12.5 µM
- IC50 ([3]; 3D7, read-out: Late trophozoites Mean IC50 (IC50^8h), 8-h exposure 24–32 hr, 3D7-A10, survival at 60 h): 0.45 µM
- IC50 ([3]; 3D7, read-out: Schizonts Mean IC50 (IC50^8h), 8-h exposure 32–40 hr, 3D7-A10, survival at 60 h): 0.933 µM
- Stage of peak activity (Figure 6) ([3]; period when the parasite was most susceptible (lowest IC50^8h)): trophozoites
- Peak Activity (Table S1) ([3]; stage(s) with the lowest IC50^8h): Trophs
- IC50 [4]: 439 nM
- levels of cAMP [5]: decreased
- levels of the deoxyribonucleotides dAMP and dTMP [5]: increased
- peptide levels (hemoglobin catabolism signature) [5]: decreased peptide levels
